The record followed here is US20190022092A1, “Therapeutic Combinations of a BTK Inhibitor and a GITR Binding Molecule, a 4-1BB Agonist, or an OX40 Agonist” (Acerta Pharma B.V., priority 2015, published 2019).

SMILES strings stand for the structures.

For series [1], the system named is pancreatic cancer (KPC mice). The series can be described thus: KPC pancreatic cancer mouse model. The format is in vivo. From the text: The KPC mouse model recapitulates many of the molecular, histopathologic, and clinical features of human disease (Westphalen and Olive, Cancer J. 2012, 18, 502-510). Mice were enrolled after identification of spontaneously appearing tumors in the pancreas that were ≥100 mm^3 (as assessed by high-resolution ultrasonography).

For a further series, the system named is Th17 and Treg cells. The series can be described thus: Th17 and Treg development of CD4+ T cells under skewing cytokines. The class given is cell-based. As to the method: Enriched CD4^+ T cells are plated on 24-well culture dishes that have been precoated 2 hr with 250 μL anti-TCRβ (0.5 μg/mL) plus anti-CD28 (5 μg/mL) at 37° C. in PBS. The cells are then supplemented with media containing BTK inhibitors along with the skewing cytokines as indicated in the following. The Th17 and Treg cultures are grown for 4 days before analysis. The cells are maintained for an additional 3 days with skewing cytokines (Th17; 20 ng/mL IL-6, 0.5 ng/mL TGF-β, 5 μg/mL IL-4, 5 μg/mL IFN-γ and Treg; 0.5 ng/mL TGF-β, 5 μg/mL IL-4, 5 μg/mL IFN-γ) and are supplemented with IL2 as a growth factor.

In the next series the test system is NSCLC (KrasLA2). The series can be described thus: KrasLA2 genetic tumor model of NSCLC. To be noted: KrasLA2 mice, 15 mg/kg. The format is in vivo. The source says:
The model is designed to have sporadic expression in single cells of G12D mutant Kras off its own promoter triggered by spontaneous intrachromosomal recombination. Johnson, et al., Nature 2001, 410, 1111-16. While the mutant Kras protein is expressed in a few cells in all tissues, tumor development is seen only in the lung at high penetrance.

Series [2] relates to NK cell lysis of Raji cells. The series can be described thus: Rituximab ADCC 51Cr release assay, Raji targets. The class given is cell-based, human. To be noted: 1 μM; NK cells, E:T 25:1. The source says:
(§1) Cell culture conditions were as follows. […] The HER18 cells were maintained in DEM supplemented with fetal bovine serum, penicillin-streptomycin and. Prior to assay, HER18 cells were harvested using trypsin-EDTA, washed with phosphate-buffered saline (PBS) containing 5% serum and viable cells were counted. For culture of primary target cells, peripheral blood from CLL patients was subject to density centrifugation to obtain peripheral blood mononuclear cells (PBMC). Cell preparations were washed and then subject to positive selection of CD5^+CD19^+ CLL cells using magnetic beads (MACS, Miltenyi Biotech). Cell preparations were used fresh after selection. NK cells from CLL patients and healthy volunteers were enriched from peripheral blood collected in sodium citrate anticoagulant tubes and then subject to density centrifugation. Removal of non NK cells was performed using negative selection by MACS separation. Freshly isolated NK cells were washed three times, enumerated, and then used immediately for ADCC assays.
ADCC assays were performed as follows. Briefly, target cells (Raji or primary CLL) were labeled by incubation at 37° C. with 100 μCi ^51Cr for 4 hours prior to co-culture with NK cells. Cells were washed, enumerated, and then added in triplicate to prepared 96-well plates containing treated NK cells at an effector:target (E:T) ratio of 25:1. […] Cultures were incubated at 37° C. for 4 hours, and then centrifuged. Supernatants were harvested and ^51Cr release was measured by liquid scintillation counting. All experiments were performed in triplicate.

For series [3], the system named is GPVI platelet aggregation. The series can be described thus: GPVI platelet aggregation studies. The class given is cell-based. To be noted: read-out: IC50, GPVI platelet aggregation.
Series [4] is described as follows: Cardiovascular function study in awake telemeterized dogs. The class given is in vivo. To be noted: male beagle dogs, single doses through 30 mg/kg. The source says: Formula (2) was well tolerated in standard in vivo Good Laboratory Practices (GLP) studies of pharmacologic safety.
Series [5] deals with NK cell lysis of primary CLL cells. The series can be described thus: Rituximab ADCC 51Cr release assay, primary autologous CLL targets. To be noted: 1 μM; E:T 25:1. The format is cell-based, human.
Excerpt: as §1
ADCC assays were performed as follows. Briefly, target cells (Raji or primary CLL) were labeled by incubation at 37° C. with 100 μCi ^51Cr for 4 hours prior to co-culture with NK cells. […] Supernatants were harvested and ^51Cr release was measured by liquid scintillation counting. […]

Series [6] in a line: Preliminary evaluation of metabolism in plasma, bile and urine. The class given is in vivo. To be noted: rats, dogs, monkeys.

As a reminder, the IC50 is the midpoint of a concentration-inhibition curve. For `CC#CC(=O)N1CCC[C@H]1c1nc(-c2ccc(C(=O)Nc3ccccn3)cc2)c2c(N)nccn12` [Formula (2), (S)-4-(8-amino-3-(1-(but-2-ynoyl)pyrrolidin-2-yl)imidazo[1,5-a]pyrazin-1-yl)-N-(pyridin-2-yl)benzamide], in series [1] (15 mg/kg BID), the “CD8+ cells in tumor tissues” value was “significant increase”, the “MDSCs in tumor tissues” value is listed as “significantly reduced”, the “Tregs in tumor tissues” value is recorded as “significantly reduced” and the “immunosuppressive TAMs in tumor tissues” value is “significantly reduced”. Further, the “survival at day 28” value in series [1] (15 mg/kg BID orally) is 5/6. Further, the “average tumor volume, day 28” value in series [1] (15 mg/kg BID orally, day 28) stood at 272 mm^3. Further, the “average tumor volume, predose” value in series [1] (15 mg/kg BID orally, predose) was 165 mm^3. For the same compound, in the series with Th17 and Treg cells, the Th17 development entry is recorded as “no adverse effect” and the Treg development result is on record as “no adverse effect”. Besides, in the series with NSCLC (KrasLA2), the “tumor volumes versus vehicle” value is reported as “significant decrease”. Also, in series [2], the “effect on rituximab-mediated ADCC, Raji cells” value is “not inhibited”. In addition, in series [3], the IC50 came out at 1150 nM. The “body temperature, cardiovascular, ECG (including QT interval) parameters” value in series [4] was “no meaningful changes”. In addition, in series [5], the “effect on rituximab-mediated ADCC, primary CLL samples (autologous)” value was “not inhibited”. Besides, in series [6], the “metabolic processes in plasma, bile, and urine” value is “oxidation, glutathione binding, and hydrolysis”.
